{"source": "patent US11299496B2", "about": "“Ligands for alpha-7 nicotinic acetylcholine receptors and methods of treating neurological and inflammatory conditions” (Northeastern University, priority 2014, dated 2022)", "key": {"human alpha-7 nAChR": {"target": "T1, human alpha-7 nAChR (Homo sapiens, UniProt P36544)", "T1 construct": "expressed in transfected cells; host or cells: Xenopus laevis oocytes (cRNA injection)", "T1 sequence (P36544 23-502)": "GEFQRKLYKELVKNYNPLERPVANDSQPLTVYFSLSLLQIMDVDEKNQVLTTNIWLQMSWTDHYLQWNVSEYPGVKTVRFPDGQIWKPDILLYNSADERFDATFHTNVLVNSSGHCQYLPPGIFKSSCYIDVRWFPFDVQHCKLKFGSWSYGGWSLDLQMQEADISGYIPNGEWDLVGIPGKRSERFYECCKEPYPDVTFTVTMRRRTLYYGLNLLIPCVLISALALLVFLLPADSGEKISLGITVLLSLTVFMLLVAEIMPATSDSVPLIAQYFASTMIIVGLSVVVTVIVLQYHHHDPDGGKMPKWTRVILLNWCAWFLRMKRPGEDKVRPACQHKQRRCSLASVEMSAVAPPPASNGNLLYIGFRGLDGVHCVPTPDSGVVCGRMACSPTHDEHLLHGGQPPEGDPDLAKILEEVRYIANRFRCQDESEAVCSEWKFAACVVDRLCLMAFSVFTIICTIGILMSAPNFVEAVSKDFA", "experiment": "Two-electrode voltage clamp of alpha-7 nAChR expressed in Xenopus oocytes (net charge)", "format": "cell-based", "procedure,_shortened": "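Human α7 nAChR co-expressed with RIC-3 in Xenopus oocytes; two-electrode clamp at −60 mV, 12 s applications in Ringer's pH 7.3. Net charge integrated over 120 s from application, normalized to prior ACh controls; measured for compound alone and with choline or ACh; n≥4 oocytes.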"}, "formalin-injected mice": {"tested_on": "formalin-injected mice", "experiment": "Formalin test (intraplantar formalin, paw licking, paw edema)", "format": "in vivo, mouse", "method": "A formalin test was carried out in an open plexiglas cage, with a mirror placed at a 45° angle behind the cage to allow an unobstructed view of the paws. Mice were allowed to acclimate for 15 min in the test cage prior to injection. Each animal was injected intraplantar with 20 μl of 2.5% formalin to the right hindpaw. Each mouse was then immediately placed in the test cage. Up to two mice at one time were observed during 0 to 5 min after injection (phase 1) and during 20-45 min post injection (phase 2). The period between the two phases of nociceptive responding is generally considered to be a phase of weak activity. The amount of time spent licking the injected paw was recorded with a digital stopwatch.\nFurther, the antinociceptive activity of drugs in phase II of the formalin test and their anti-allodynic response in the CCI model was tested. Mice received vehicle or methyllycaconatine (MLA, 10 mg/kg) prior to vehicle or an ED84 dose of the ago-PAM/PAM (determined from a dose-response experiment using the formalin intraplantar injection model). […] The MLA results were confirmed by testing the ED84 dose of the test compounds in the alpha-7 KO and wild type mice. Finally, it was tested whether tolerance develops to the antinociceptive effects of alpha-7 nAChR ago-PAM following 7 days of repeated injections of its ED84 dose. Mice were given the following treatments: vehicle (7 days of vehicle administration); acute alpha-7 nAChR test compounds (6 days of vehicle administration followed by alpha-7 nAChR ago-PAM on the last day); and repeated alpha-7 nAChR test compounds (7 days of alpha-7 nAChR PAM or ago-PAM)."}, "CCI mice": {"tested_on": "CCI mice", "experiment": "Chronic constriction injury (CCI) model, mechanical allodynia (von Frey)", "format": "in vivo, mouse", "method": "Mice were anesthetized with pentobarbital (45 mg/kg, i.p.). An incision was made just below the hipbone, parallel to the sciatic nerve. The right common sciatic nerve was exposed at the level proximal to the sciatic trifurcation, and a nerve segment 3-5 mm long was separated from surrounding connective tissue. Two loose ligatures with 6-0 silk suture were made around the nerve with a 1.0-1.5 mm interval between them. Muscles were closed with suture thread and the wound with wound clips. […] Any suture that remained after two weeks was removed from the healed surgical wound. Mechanical allodynia (von Frey test) was measured before and after drug injections.\nThe antiallodynic effects of test compounds were assessed in three experiments consisting of CCI mice and sham control mice. […] The anti-allodynic effects of alpha-7 nAChRs PAMs and ago-PAMs were tested (four doses and vehicle control, N=10 mice/group, administered i.p.) in the CCI model. Mice were assessed for mechanical allodynia 2 weeks after the CCI surgery. All these studies will be conducted in blinded manner. CCI and sham control mice received two conditioning sessions per day (vehicle in the morning and drug in the afternoon) over the course of 3 days, and were tested for a place preference on day 7 without any injections.\nPain behavioral data are presented as mean±S.E.M. (see FIGS. 5A and 5B). Statistical analysis was performed using the t-test or two-way analysis of variance test, followed by the post-hoc Bonferroni's test. All differences were considered significant at p<0.05, and significant differences are shown with asterisks in FIGS. 5A and 5B. ED50 values with 95% confidence limits (CL) were calculated by unweighted least-squares linear regression."}}, "data": [{"smiles": "NS(=O)(=O)c1ccc2c(c1)[C@H]1C=CC[C@H]1[C@@H](c1ccc(Br)cc1)N2", "note": "[Compound 1, (3aR,4S,9bS)-4-(4-bromophenyl)-3a,4,5,9b-tetrahydro-3H-cyclopenta[c]quinoline-8-sulfonamide]", "values": [{"measurement": "Charge Alone", "setting": "human alpha-7 nAChR; compound alone acting as an allosteric agonist, area under the curve of current vs. time", "result": 450}, {"measurement": "Charge +C", "setting": "human alpha-7 nAChR; compound together with choline or ACh, includes PAM and ago-PAM activity, area under the curve of current vs. time", "result": 1700}, {"measurement": "activity of separated enantiomer vs racemate 4BP-TQS", "setting": "human alpha-7 nAChR; enantioseparation and electrophysiological characterization", "result": "all the activity of the racemate of 4BP-TQS lies in one enantiomer"}, {"measurement": "activity in alpha-7 nAChR knockout mice", "setting": "formalin-injected mice; FIG. 3D", "result": "inactive"}, {"measurement": "effect of GAT107 after MLA", "setting": "formalin-injected mice; MLA 10 mg/kg prior, FIG. 3C", "result": "reversed the effects of GAT107"}, {"measurement": "nociceptive behavior of formalin phase II", "setting": "formalin-injected mice; given i.v., FIG. 3A", "result": "dose-dependently and significantly block the nociceptive behavior of formalin phase II"}, {"measurement": "nociceptive behavior of formalin phase II", "setting": "formalin-injected mice; given orally, FIG. 3B", "result": "dose-dependently and significantly block the nociceptive behavior of formalin phase II"}, {"measurement": "paw edema induced by formalin intraplantar injection", "setting": "formalin-injected mice; mouse, in vivo", "result": "reduced the paw edema"}, {"measurement": "anti-allodynic effect in CCI mice", "setting": "CCI mice; i.p., FIG. 5A", "result": "significant anti-allodynic effect"}, {"measurement": "effect on sham mice", "setting": "CCI mice; sham control mice", "result": "no effect on sham mice"}]}]}
